Laboratory results taken from publication PMC2584942, “Phase I dose escalation study of telatinib (BAY 57-9352) in patients with advanced solid tumours” (British Journal of Cancer, 2008).

How the values were obtained:
Colo-205 colon carcinoma = tested on: Colo-205 colon carcinoma; set-up: method as in printed; conditions: Colo-205 colon carcinoma model; background statement, ref not given; cited from earlier work
[1] = tested on: MDA-MB-231 breast carcinoma; set-up: method as in printed; conditions: MDA-MB-231 breast carcinoma model; background statement, ref not given; cited from earlier work
bFGF = assay: Plasma bFGF concentration (ELISA); assay type: in vivo, human; conditions: after 14 days of multiple dosing
Protocol: The effects of telatinib treatment on the plasma concentrations of sVEGFR-2, VEGF and bFGF were determined from blood samples taken at baseline, on day 14 of cycles 1, 2, 4, 6, etc. and at the final visit. Samples were analysed using the relevant quantitative enzyme-linked immunosorbent assay (ELISA) (R&D Systems Europe, Oxford, UK) according to the manufacturer's instructions. DCE-MRI was performed at baseline, on day 2 (only cycle 1), and on day 14 of cycles 1–3 to assess tumour blood flow/tumour vessel permeability in a subgroup of patients ([Morgan et al, 2003]).
(§1) To assess the biological activity of telatinib, plasma concentration analyses for the angiogenic markers VEGF, sVEGFR-2, bFGF, PDGF and […] were performed at baseline and during the course of the study. Furthermore, DCE-MRI measurements were done at baseline, on days 2 and 14 of cycle 1 and on day 14 of cycles 2 and 3. Evaluable DCE-MRI results were available for a subgroup of patients treated at dose levels of 300 mg BID or higher.

[2] = tested on: human aortic smooth muscle cells; set-up: method as in printed; conditions: background statement, ref not given; cited from earlier work
[3] = tested on: VEGFR-2 autophosphorylation; set-up: method as in printed; conditions: whole-cell assay in vitro; background statement, ref not given; cited from earlier work
[4] = set-up: method as in printed; conditions: in vitro studies; background statement, ref not given; cited from earlier work
VEGF = assay: Plasma VEGF concentration (ELISA); assay type: in vivo, human
Protocol: […] Samples were analysed using the relevant quantitative enzyme-linked immunosorbent assay (ELISA) (R&D Systems Europe, Oxford, UK) according to the manufacturer's instructions. DCE-MRI was performed at baseline, on day 2 (only cycle 1), and on day 14 of cycles 1–3 to assess tumour blood flow/tumour vessel permeability in a subgroup of patients ([Morgan et al, 2003]).
as §1

[5] = tested on: human umbilical vein endothelial cells; set-up: method as in printed; conditions: human umbilical vein endothelial cells in vitro; background statement, ref not given; cited from earlier work
[6] = tested on: cytochrome P450 (CYP) isoforms; set-up: method as in printed; conditions: background statement, ref not given, cited from earlier work
[7] = tested on: refractory advanced solid tumours; assay: Tumour response according to RECIST; assay type: in vivo, human; conditions: number of patients
Protocol: History, physical examinations, haematological and biochemical laboratory evaluations were performed at screening, on days 1, 7 and 14 of cycle 1 and on day 1 of subsequent cycles. Baseline objective tumour measurements were performed within 4 weeks prior to study treatment. Lesions at all disease sites were categorised as either measurable or nonmeasurable. Indicator lesions were selected and monitored throughout the study by the same assessor and using the same technique. Tumour response was evaluated according to the RECIST ([Therasse et al, 2000]).

[8] = primary tumour site Colorectal, N=25
[9] = primary tumour site Other, N=17
[10] = primary tumour site Pancreatic, N=4

CNC(=O)c1cc(COc2nnc(Nc3ccc(Cl)cc3)c3ccoc23)ccn1 [telatinib]
tumour growth in vivo (Colo-205 colon carcinoma): potent, dose-dependent reduction in tumour growth | tumour growth in vivo [1]: potent, dose-dependent reduction in tumour growth | bFGF plasma levels (bFGF): no relevant changes | PDGF-stimulated growth [2]: inhibited | VEGFR-2 autophosphorylation [3]: inhibited | drug–drug interactions due to displacement from plasma protein-binding sites [4]: unlikely | VEGF levels (VEGF; day 21 compared to baseline): increased | VEGF plasma levels (VEGF; within 8 h after the first telatinib administration): dose-dependent short-term increase | VEGF-dependent proliferation [5]: inhibited | main target of metabolic degradation [6]: N-methyl group | risk of drug–drug interactions ([6]; human microsomes, hepatocytes or single CYP isoforms): no or only a very low risk of drug–drug interactions | biotransformation by CYP isoforms ([6]; in vitro): metabolised by various CYP isoforms | Best response NA (not assessable for response) ([7]; Total, N=71): 1 | Best response PD clin (RECIST) ([7]; Total, N=71): 9 | Best response PD meas (RECIST) ([7]; Total, N=71): 14 | Best response PR (RECIST) ([7]; Total, N=71): 2 | Best response SD (RECIST) ([7]; Total, N=71): 42 | Stabilisation (months) <6 ([7]; Total, N=71): 62 | Stabilisation (months) >6 ([7]; Total, N=71): 5 | Stabilisation (months) >12 ([7]; Total, N=71): 3 | Best response PD clin (RECIST) [7, 8]: 1 | Best response PD meas (RECIST) [7, 8]: 6 | Best response SD (RECIST) [7, 8]: 17 | Stabilisation (months) <6 [7, 8]: 23 | Stabilisation (months) >6 [7, 8]: 1 | Stabilisation (months) >12 [7, 8]: 1 | Best response PD clin (RECIST) ([7]; primary tumour site HCC, N=9): 4 | Best response SD (RECIST) ([7]; primary tumour site HCC, N=9): 5 | Stabilisation (months) <6 ([7]; primary tumour site HCC, N=9): 8 | Stabilisation (months) >6 ([7]; primary tumour site HCC, N=9): 1 | Best response PD meas (RECIST) ([7]; primary tumour site NSCLC, N=4): 1 | Best response SD (RECIST) ([7]; primary tumour site NSCLC, N=4): 3 | Stabilisation (months) <6 ([7]; primary tumour site NSCLC, N=4): 4 | Best response NA (not assessable for response) [7, 9]: 1 | Best response PD clin (RECIST) [7, 9]: 1 | Best response PD meas (RECIST) [7, 9]: 4 | Best response SD (RECIST) [7, 9]: 10 | Stabilisation (months) <6 [7, 9]: 13 | Stabilisation (months) >6 [7, 9]: 3 | Best response PD clin (RECIST) [7, 10]: 2 | Best response PD meas (RECIST) [7, 10]: 2 | Stabilisation (months) <6 [7, 10]: 4 | Best response PD clin (RECIST) ([7]; primary tumour site RCC, N=12): 1 | Best response PD meas (RECIST) ([7]; primary tumour site RCC, N=12): 1 | Best response SD (RECIST) ([7]; primary tumour site RCC, N=12): 7 | Stabilisation (months) <6 ([7]; primary tumour site RCC, N=12): 10 | Stabilisation (months) >12 ([7]; primary tumour site RCC, N=12): 2
